The results in this text go back to paper PMC8086144, “A novel peptide antagonist of the human growth hormone receptor” (The Journal of Biological Chemistry, 2021).

Molecules are shown by their SMILES.

For the test, the target named is T1, hPRLR (Homo sapiens, UniProt P16471).
T1 construct: T84 cells express high levels of hPRLR relative to hGHR (>1300:1); host or cells: T84 (human colon cancer), MALME-3M (human melanoma)
T1 sequence (P16471 25-622): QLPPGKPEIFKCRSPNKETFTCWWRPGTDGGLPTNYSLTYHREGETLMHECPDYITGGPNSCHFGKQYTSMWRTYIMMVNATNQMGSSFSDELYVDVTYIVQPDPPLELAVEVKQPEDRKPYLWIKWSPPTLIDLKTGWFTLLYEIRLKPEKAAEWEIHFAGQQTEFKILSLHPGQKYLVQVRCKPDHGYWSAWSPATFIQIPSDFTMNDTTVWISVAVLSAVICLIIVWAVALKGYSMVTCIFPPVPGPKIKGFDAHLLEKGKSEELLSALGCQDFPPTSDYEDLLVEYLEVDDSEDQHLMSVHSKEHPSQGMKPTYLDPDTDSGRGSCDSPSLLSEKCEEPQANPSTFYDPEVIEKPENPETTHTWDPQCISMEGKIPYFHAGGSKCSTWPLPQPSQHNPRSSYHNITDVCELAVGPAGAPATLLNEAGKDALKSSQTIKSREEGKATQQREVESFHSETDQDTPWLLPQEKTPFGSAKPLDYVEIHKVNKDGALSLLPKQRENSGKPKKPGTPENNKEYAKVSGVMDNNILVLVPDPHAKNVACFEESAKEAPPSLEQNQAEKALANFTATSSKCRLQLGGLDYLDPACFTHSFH
The test can be described thus: hPRL-induced pSTAT5 in T84 cells, Western blot. It is filed as cell-based. Conditions: 2.5 nM hPRL, 20 min, S1H concentration not given. As to the method: SK-MEL-28, MALME-3M, and T84 cells were grown and maintained in Eagle's Minimal Essential Medium. IM9 and L cells were grown in RPMI-1640 media and Dulbecco's modified Eagle's medium, respectively. All growth media was supplemented with 10% fetal bovine serum and 1× antibiotic-antimycotic […] solution. Cells were grown at 37 °C under a 5% CO2 atmosphere in a humidified incubator, and growth media was replaced every 48 h during incubation. No hGH was present in or added to the growth media unless specifically indicated. […]
Following treatment, the cells were harvested at the indicated time points, and the total protein was extracted. […] Sample protein concentration was quantified using a Bradford assay with bovine serum albumin as the protein standard. Absorbance at 595 nm was measured using a Spectramax 250 multimode plate reader (Molecular Devices) and processed using SoftmaxPro v4.7.1 software.
Cytosolic fractions from treated cells were thawed on ice, and 80 μg protein was loaded onto polyacrylamide gels for separation by SDS-PAGE. […] Chemiluminescence signals were detected using a GelDoc (BioRad) fluorescence imager. […]

As for `CC[C@H](C)[C@H](NC(=O)[C@H](Cc1ccc(O)cc1)NC(C)=O)C(=O)N1CCC[C@H]1C(=O)N[C@@H](CCCCN)C(=O)N[C@@H](CCC(=O)O)C(=O)N[C@@H](CCC(N)=O)C(=O)N[C@@H](CCCCN)C(=O)N[C@@H](Cc1ccc(O)cc1)C(=O)N[C@@H](CO)C(=O)N[C@@H](Cc1ccccc1)C(=O)N[C@@H](CC(C)C)C(=O)N[C@@H](CCC(N)=O)C(=O)N[C@@H](CC(N)=O)C(=O)N1CCC[C@H]1C(=O)N[C@@H](CCC(N)=O)C(=O)N[C@H](C(N)=O)[C@@H](C)O` [S1H], the “inhibition of hPRL-induced pSTAT5” value came out at 13%.
